Experimental data: patent US20230416228A1 (Forkhead Biotherapeutics, Inc., priority 2020, published 2023)

Target: T1, human FOXO1 (constitutively active form Thr24Ala, Ser256Ala, Ser319Ala) (Homo sapiens, UniProt Q12778, S256A/S319A/T24A)
T1 construct: expressed in transfected cells; host or cells: HEK293 cells transfected with pcDNA3.1 plasmid
Experiment: FOXO1 inhibitor activity assay: cell-based transcriptional (luciferase) reporter assay in HEK293 cells
Conditions: HEK293 cells transfected with insulin response element firefly luciferase reporter, FOXO1 and Renilla luciferase; 10-point dose response 50 μM to 2.5 nM; 24 hours
How it was run: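 IC50 and maximal inhibition were fitted by 4-parameter logistic regression on normalized firefly/Renilla luciferase ratios. The 0% reference used RFP in place of FOXO1, and the 100% reference was DMSO-only with all plasmids.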

T1 sequence (Q12778 whole entry T24A/S256A/S319A): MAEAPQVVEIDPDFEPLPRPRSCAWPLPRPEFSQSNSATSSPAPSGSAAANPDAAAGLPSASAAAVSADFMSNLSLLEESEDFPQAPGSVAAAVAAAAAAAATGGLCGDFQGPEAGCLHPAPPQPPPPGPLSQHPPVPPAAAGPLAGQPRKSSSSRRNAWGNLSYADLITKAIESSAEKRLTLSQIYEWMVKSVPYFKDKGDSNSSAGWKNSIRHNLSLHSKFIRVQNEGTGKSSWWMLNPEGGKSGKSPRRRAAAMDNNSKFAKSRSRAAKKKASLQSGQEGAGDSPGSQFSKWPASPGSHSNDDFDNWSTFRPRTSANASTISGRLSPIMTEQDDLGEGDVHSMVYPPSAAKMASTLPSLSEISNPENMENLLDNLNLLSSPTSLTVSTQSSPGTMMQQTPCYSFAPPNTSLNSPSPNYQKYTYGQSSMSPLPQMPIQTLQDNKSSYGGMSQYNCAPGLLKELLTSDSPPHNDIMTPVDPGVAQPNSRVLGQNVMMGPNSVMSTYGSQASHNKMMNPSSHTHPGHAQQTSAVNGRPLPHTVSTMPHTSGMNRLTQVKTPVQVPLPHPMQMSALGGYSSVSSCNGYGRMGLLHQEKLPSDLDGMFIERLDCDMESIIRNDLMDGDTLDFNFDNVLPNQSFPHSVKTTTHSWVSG

IC50	Compound
100 to 300 nM	Cn1nc(NC(=O)c2ccc(N3CCN(C4COC4)CC3)cc2)cc1-c1nc2ccccc2[nH]1 [Compound A-215, N-[5-(1H-benzimidazol-2-yl)-1-methyl-pyrazol-3-yl]-4-[4-(oxetan-3-yl)piperazin-1-yl]benzamide]
100 to 300 nM	Cn1nc(NC(=O)c2ccc(N3CCNCC3)nc2)cc1-c1nc2ccccc2[nH]1 [Compound A-216, N-[5-(1H-benzimidazol-2-yl)-1-methyl-pyrazol-3-yl]-6-piperazin-1-yl-pyridine-3-carboxamide]
100 to 300 nM	Cn1nc(NC(=O)c2ccc(N3CCNCC3)cc2)cc1-c1nc2ccccc2[nH]1 [Compound A-217, N-[5-(1H-benzimidazol-2-yl)-1-methyl-pyrazol-3-yl]-4-piperazin-1-yl-benzamide]
100 to 300 nM	O=C(Nc1cc(-c2nc3ccccc3[nH]2)[nH]n1)c1ccc(N2CCNCC2)nc1 [Compound A-218, N-[5-(1H-benzimidazol-2-yl)-1H-pyrazol-3-yl]-6-piperazin-1-yl-pyridine-3-carboxamide]
< 100 nM	COc1cc(F)c2[nH]c(-c3cc(NC(=O)c4ccc(N5CCN(C6COC6)CC5)cc4)nn3C)nc2c1 [Compound A-219, N-[5-(7-fluoro-5-methoxy-1H-benzimidazol-2-yl)-1-methyl-pyrazol-3-yl]-4-[4-(oxetan-3-yl)piperazin-1-yl]benzamide]
< 100 nM	O=C(Nc1cc(-c2nc3ccccc3[nH]2)[nH]n1)c1ccc(N2CCN(C3COC3)CC2)cc1 [Compound A-220, N-[5-(1H-benzimidazol-2-yl)-1H-pyrazol-3-yl]-4-[4-(oxetan-3-yl)piperazin-1-yl]benzamide]
300 to 1000 nM	Cn1nc(NC(=O)c2ccc(N3CCNC(=O)C3)nc2)cc1-c1nc2ccccc2[nH]1 [Compound A-221, N-[5-(1H-benzimidazol-2-yl)-1-methyl-pyrazol-3-yl]-6-(3-oxopiperazin-1-yl)pyridine-3-carboxamide]
< 100 nM	COc1cc(F)c2[nH]c(-c3cc(NC(=O)c4ccc(N5CCN(CCO)CC5)cc4)nn3C)nc2c1 [Compound A-222, N-[5-(7-fluoro-5-methoxy-1H-benzimidazol-2-yl)-1-methyl-pyrazol-3-yl]-4-[4-(2-hydroxyethyl)piperazin-1-yl]benzamide]
< 100 nM	Cn1nc(NC(=O)c2ccc(OCCO)c(C(F)(F)F)c2)cc1-c1nc2ccccc2[nH]1 [Compound A-223, N-[5-(1H-benzimidazol-2-yl)-1-methyl-pyrazol-3-yl]-4-(2-hydroxyethoxy)-3-(trifluoromethyl)benzamide]
100 to 300 nM	Cn1nc(NC(=O)c2ccc(N3CCOC(CO)C3)nc2)cc1-c1nc2ccccc2[nH]1 (stereo not shown) [Compound A-224, N-[5-(1H-benzimidazol-2-yl)-1-methyl-pyrazol-3-yl]-6-[2-(hydroxy-methyl)morpholin-4-yl]pyridine-3-carboxamide]
300 to 1000 nM	Cn1nc(NC(=O)c2ccc(N3CC[C@@H](O)C3)nc2)cc1-c1nc2ccccc2[nH]1 [Compound A-225, N-[5-(1H-benzimidazol-2-yl)-1-methyl-pyrazol-3-yl]-6-[(3R)-3-hydroxy-pyrrolidin-1-yl]pyridine-3-carboxamide]
100 to 300 nM	CC(=O)N1CCN(c2ccc(C(=O)Nc3cc(-c4nc5ccccc5[nH]4)n(C)n3)cn2)CC1 [Compound A-226, 6-(4-acetylpiperazin-1-yl)-N-[5-(1H-benzimidazol-2-yl)-1-methyl-pyrazol-3-yl]pyridine-3-carboxamide]
100 to 300 nM	Cn1nc(NC(=O)c2ccc(N3CCN4C(=O)CCC4C3)nc2)cc1-c1nc2ccccc2[nH]1 (stereo not shown) [Compound A-228, N-[5-(1H-benzimidazol-2-yl)-1-methyl-pyrazol-3-yl]-6-(6-oxo-1,3,4,7,8,8a-hexahydropyrrolo[1,2-a]pyrazin-2-yl)pyridine-3-carboxamide]
100 to 300 nM	C[C@@H]1COCCN1c1ccc(C(=O)Nc2cc(-c3nc4ccccc4[nH]3)n(C)n2)cn1 [Compound A-229, N-[5-(1H-benzimidazol-2-yl)-1-methyl-pyrazol-3-yl]-6-[(3R)-3-methylmorpholin-4-yl]pyridine-3-carboxamide]
100 to 300 nM	C[C@H]1COCCN1c1ccc(C(=O)Nc2cc(-c3nc4ccccc4[nH]3)n(C)n2)cn1 [Compound A-230, N-[5-(1H-benzimidazol-2-yl)-1-methyl-pyrazol-3-yl] -6-[(3S)-3-methylmorpholin-4-yl]pyridine-3-carboxamide]
> 1000 nM	Cc1cc(N2CCOCC2)ncc1C(=O)Nc1cc(-c2nc3ccccc3[nH]2)n(C)n1 [Compound A-232, N-[5-(1H-benzimidazol-2-yl)-1-methyl-pyrazol-3-yl]-4-methyl-6-morpholino-pyridine-3-carboxamide]
300 to 1000 nM	CC(=O)N1CCN(c2ccc(C(=O)Nc3cc(-c4nc5ccccc5[nH]4)[nH]n3)cn2)CC1 [Compound A-233]

IC50	Compound
300 to 1000 nM	COc1ccc(C(=O)Nc2nc(-c3nc4ccccc4[nH]3)n(C)n2)cc1Cl [Compound A-234, N-[5-(1H-benzimidazol-2-yl)-1-methyl-1,2,4-triazol-3-yl]-3-chloro-4-methoxy-benzamide]
100 to 300 nM	CN1CCN(c2ccc(C(=O)Nc3cc(-c4nc5ccccc5[nH]4)n(C)n3)cc2)CC1=O [Compound A-235, N-[5-(1H-benzimidazol-2-yl)-1-methyl-pyrazol-3-yl]-4-(4-methyl-3-oxo-piperazin-1-yl)benzamide]
100 to 300 nM	Cc1nc(N2CCOCC2)ccc1C(=O)Nc1cc(-c2nc3ccccc3[nH]2)n(C)n1 [Compound A-236]
< 100 nM	COc1cc(F)c2[nH]c(-c3cc(NC(=O)c4ccc(N5CCOC(CO)C5)nc4)nn3C)nc2c1 (stereo not shown) [Compound A-237, N-[5-(7-fluoro-5-methoxy-1H-benzimidazol-2-yl)-1-methyl-pyrazol-3-yl]-6-[2-(hydroxymethyl)morpholin-4-yl]pyridine-3-carboxamide]
100 to 300 nM	Cn1nc(NC(=O)c2ccc(N3CCOCC3CO)nc2)cc1-c1nc2ccccc2[nH]1 (stereo not shown) [Compound A-238, N-[5-(1H-benzimidazol-2-yl)-1-methyl-pyrazol-3-yl]-6-[3-(hydroxymethyl)morpholin-4-yl]pyridine-3-carboxamide]
> 1000 nM	COc1cc(F)c2[nH]c(-c3cc(NC(=O)c4ccc(N5CCOC(CO)C5)nc4)n[nH]3)nc2c1 (stereo not shown) [Compound A-239, N-[5-(7-fluoro-5-methoxy-1H-benzimidazol-2-yl)-1H-pyrazol-3-yl]-6-[2-(hydroxymethyl)morpholin-4-yl]pyridine-3-carboxamide]
< 100 nM	COc1cc(F)c2[nH]c(-c3cc(NC(=O)c4ccc(N5CCN(C(C)=O)CC5)nc4)nn3C)nc2c1 [Compound A-240, 6-(4-acetylpiperazin-1-yl)-N-[5-(7-fluoro-5-methoxy-1H-benzimidazol-2-yl)-1-methyl-pyrazol-3-yl]pyridine-3-carboxamide]
300 to 1000 nM	CN1CCN(c2ccc(C(=O)Nc3nc(-c4nc5ccccc5[nH]4)n(C)n3)cc2)CC1 [Compound A-241, N-[5-(1H-benzimidazol-2-yl)-1-methyl-1,2,4-triazol-3-yl]-4-(4-methylpiperazin-1-yl)benzamide]
100 to 300 nM	CN1CCN(c2ccc(C(=O)Nc3cc(-c4nc5ccccc5[nH]4)[nH]n3)cc2)CC1=O [Compound A-242, N-[5-(1H-benzimidazol-2-yl)-1H-pyrazol-3-yl]-4-(4-methyl-3-oxo-piperazin-1-yl)benzamide]
300 to 1000 nM	CN1CCN(c2ccc(C(=O)Nc3cc(-c4nc5ccccc5[nH]4)[nH]n3)cn2)CC1=O [Compound A-243, N-[5-(1H-benzimidazol-2-yl)-1H-pyrazol-3-yl]-6-(4-methyl-3-oxo-piperazin-1-yl)pyridine-3-carboxamide]
100 to 300 nM	CC(C)C(=O)N1CCN(c2ccc(C(=O)Nc3cc(-c4nc5ccccc5[nH]4)n(C)n3)cn2)CC1 [Compound A-244, N-[5-(1H-benzimidazol-2-yl)-1-methyl-pyrazol-3-yl]-6-[4-(2-methylpropanoyl)piperazin-1-yl]pyridine-3-carboxamide]
< 100 nM	C[C@H]1CN(c2ccc(C(=O)Nc3cc(-c4nc5ccccc5[nH]4)n(C)n3)cn2)CCN1 [Compound A-245, N-[5-(1H-benzimidazol-2-yl)-1-methyl-pyrazol-3-yl]-6-[(3S)-3-methylpiperazin-1-yl]pyridine-3-carboxamide]
100 to 300 nM	CN1CCN(c2ccc(C(=O)Nc3cc(-c4nc5ccccc5[nH]4)n(C)n3)cn2)CC1=O [Compound A-246, N-[5-(1H-benzimidazol-2-yl)-1-methyl-pyrazol-3-yl]-6-(4-methyl-3-oxo-piperazin-1-yl)pyridine-3-carboxamide]
< 100 nM	C[C@@H]1CN(c2ccc(C(=O)Nc3cc(-c4nc5ccccc5[nH]4)n(C)n3)cn2)CCN1 [Compound A-247, N-[5-(1H-benzimidazol-2-yl)-1-methyl-pyrazol-3-yl]-6-[(3R)-3-methylpiperazin-1-yl]pyridine-3-carboxamide]
< 100 nM	Cn1nc(NC(=O)c2ccc(N3CCO[C@@H](CO)C3)nc2)cc1-c1nc2ccccc2[nH]1 [Compound A-248, N-[5-(1H-benzimidazol-2-yl)-1-methyl-pyrazol-3-yl]-6-[(2R)-2-(hydroxymethyl)morpholin-4-yl]pyridine-3-carboxamide]
100 to 300 nM	Cn1nc(NC(=O)c2ccc(N3CCN4C(=O)CC[C@@H]4C3)nc2)cc1-c1nc2ccccc2[nH]1 [Compound A-249, 6-[(8aR)-6-oxo-1,3,4,7,8,8a-hexahydropyrrolo[1,2-a]pyrazin-2-yl]-N-[5-(1H-benzimidazol-2-yl)-1-methyl-pyrazol-3-yl]pyridine-3-carboxamide]
300 to 1000 nM	Cn1nc(NC(=O)c2ccc(N3CCN4C(=O)CC[C@H]4C3)nc2)cc1-c1nc2ccccc2[nH]1 [Compound A-250]
